test system: not listed separately; assay: Tested for volume of distribution after intravenous administration to Sprague-Dawley rat at dosage of 0.2 mg/kg; assay type: ADME, organism-based; set-up: dose 0.2 mg/kg, route intravenous; details: in vivo, read-out: Volume of distribution

Structure (SMILES)	Vd
Cc1cc(C(=O)Nc2ccc(-c3ccccc3S(N)(=O)=O)cc2)n(-c2cc3ccccc3cc2F)n1	2.6 L/kg

test system: not listed separately; assay: Oral bioavailability in rat by oral dosing; assay type: ADME, organism-based; details: in vivo

Structure (SMILES)	bioavailability
Cc1cc(C(=O)Nc2ccc(-c3ccccc3S(N)(=O)=O)cc2)n(-c2ccc3ccccc3c2)n1	24.5%

test system: not listed separately; assay: Tested for half life value after oral administration at dosage of 4 mg/kg in rat; assay type: ADME, organism-based; set-up: dose 4 mg/kg, route oral; details: in vivo

Structure (SMILES)	half-life
Cc1cc(C(=O)Nc2ccc(-c3ccccc3S(N)(=O)=O)cc2)n(-c2cc3ccccc3cc2F)n1	6 h

test system: not listed separately; assay: Clearance after iv administration to Sprague-Dawley rat at dosage of 0.2 mg/kg; assay type: ADME, organism-based; set-up: dose 0.2 mg/kg, route intravenous; details: in vivo

Structure (SMILES)	clearance
Cc1cc(C(=O)Nc2ccc(-c3ccccc3S(N)(=O)=O)cc2)n(-c2cc3ccccc3cc2F)n1	1.06 L/h/kg

test system: not listed separately; assay: Half-life was determined; assay type: ADME, organism-based; details: rat, in vivo

Structure (SMILES)	half-life
Cc1cc(C(=O)Nc2ccc(-c3ccccc3S(N)(=O)=O)cc2)n(-c2ccc3ccccc3c2)n1	2.4 h

target: Vitamin K-dependent protein C (Homo sapiens, UniProt P04070); assay: Inhibitory activity against activated protein C; details: not given
Sequence (P04070 43-197 limits assumed): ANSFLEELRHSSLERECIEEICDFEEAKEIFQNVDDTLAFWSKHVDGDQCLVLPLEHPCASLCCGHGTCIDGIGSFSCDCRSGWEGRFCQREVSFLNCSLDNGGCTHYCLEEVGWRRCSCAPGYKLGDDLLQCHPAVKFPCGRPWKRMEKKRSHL
Sequence (P04070 212-461 limits assumed): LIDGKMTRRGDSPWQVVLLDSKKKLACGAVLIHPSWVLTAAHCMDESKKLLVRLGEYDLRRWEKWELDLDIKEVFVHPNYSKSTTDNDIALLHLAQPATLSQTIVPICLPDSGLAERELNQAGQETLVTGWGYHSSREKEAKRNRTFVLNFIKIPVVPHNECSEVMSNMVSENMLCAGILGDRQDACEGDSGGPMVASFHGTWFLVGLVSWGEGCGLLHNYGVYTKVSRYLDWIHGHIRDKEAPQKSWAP

Structure (SMILES)	IC50
Cc1cc(C(=O)Nc2ccc(-c3ccccc3S(N)(=O)=O)cc2)n(-c2ccc3cc(Cl)ccc3c2)n1	> 11 µM
Cc1cc(C(=O)Nc2ccc(-c3ccccc3S(N)(=O)=O)cc2)n(-c2cc3ccccc3cc2S(N)(=O)=O)n1	> 11 µM
Cc1cc(C(=O)Nc2ccc(-c3ccccc3S(N)(=O)=O)cc2)n(-c2cc3ccccc3cc2C2=NCCN2)n1	> 11 µM
Cc1cc(C(=O)Nc2ccc(-c3ccccc3S(N)(=O)=O)cc2)n(-c2cc3ccccc3cc2C#N)n1	> 11 µM
Cc1cc(C(=O)Nc2ccc(-c3ccccc3S(N)(=O)=O)cc2)n(-c2cc3ccccc3cc2CN)n1	> 11 µM
Cc1cc(C(=O)Nc2ccc(-c3ccccc3S(N)(=O)=O)cc2)n(-c2ccc3cc(Br)ccc3c2)n1	> 11 µM
COC(=O)c1cc2ccccc2cc1-n1nc(C)cc1C(=O)Nc1ccc(-c2ccccc2S(N)(=O)=O)cc1	> 11 µM
Cc1cc(C(=O)Nc2ccc(-c3ccccc3S(N)(=O)=O)cc2)n(-c2cc3ccccc3cc2CO)n1	> 11 µM
Cc1cc(C(=O)Nc2ccc(-c3ccccc3S(N)(=O)=O)cc2)n(-c2cc3ccccc3cc2C(=N)N(C)C)n1	> 11 µM
Cc1cc(C(=O)Nc2ccc(-c3ccccc3S(N)(=O)=O)cc2)n(-c2cc3ccccc3cc2F)n1	> 11 µM
Cc1cc(C(=O)Nc2ccc(-c3ccccc3S(N)(=O)=O)cc2)n(-c2ccc3ccccc3c2)n1	> 11 µM

target: T1, Coagulation factor X (Homo sapiens, UniProt P00742); assay: Inhibitory activity against coagulation factor Xa; details: not given
T1 sequence (P00742 41-179 limits assumed): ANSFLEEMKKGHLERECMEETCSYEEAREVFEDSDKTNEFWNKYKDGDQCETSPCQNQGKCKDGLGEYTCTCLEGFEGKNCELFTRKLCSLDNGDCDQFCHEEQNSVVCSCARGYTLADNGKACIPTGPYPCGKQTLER
T1 sequence (P00742 235-488 limits assumed): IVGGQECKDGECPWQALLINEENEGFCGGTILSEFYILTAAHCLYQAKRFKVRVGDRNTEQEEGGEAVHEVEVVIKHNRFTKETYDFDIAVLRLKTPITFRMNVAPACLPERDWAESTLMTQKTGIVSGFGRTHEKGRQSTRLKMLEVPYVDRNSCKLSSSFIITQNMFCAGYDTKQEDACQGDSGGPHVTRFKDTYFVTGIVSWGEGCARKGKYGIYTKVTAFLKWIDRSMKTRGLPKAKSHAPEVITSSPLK

Structure (SMILES)	IC50
Cc1cc(C(=O)Nc2ccc(-c3ccccc3S(N)(=O)=O)cc2)n(-c2ccc3cc(Cl)ccc3c2)n1	0.011 µM
Cc1cc(C(=O)Nc2ccc(-c3ccccc3S(N)(=O)=O)cc2)n(-c2cc3ccccc3cc2S(N)(=O)=O)n1	0.024 µM
Cc1cc(C(=O)Nc2ccc(-c3ccccc3S(N)(=O)=O)cc2)n(-c2cc3ccccc3cc2C2=NCCN2)n1	7.82 µM
Cc1cc(C(=O)Nc2ccc(-c3ccccc3S(N)(=O)=O)cc2)n(-c2cc3ccccc3cc2C#N)n1	0.006 µM
Cc1cc(C(=O)Nc2ccc(-c3ccccc3S(N)(=O)=O)cc2)n(-c2cc3ccccc3cc2CN)n1	0.038 µM
Cc1cc(C(=O)Nc2ccc(-c3ccccc3S(N)(=O)=O)cc2)n(-c2ccc3cc(Br)ccc3c2)n1	0.018 µM
COC(=O)c1cc2ccccc2cc1-n1nc(C)cc1C(=O)Nc1ccc(-c2ccccc2S(N)(=O)=O)cc1	0.545 µM
Cc1cc(C(=O)Nc2ccc(-c3ccccc3S(N)(=O)=O)cc2)n(-c2cc3ccccc3cc2CO)n1	0.483 µM
Cc1cc(C(=O)Nc2ccc(-c3ccccc3S(N)(=O)=O)cc2)n(-c2cc3ccccc3cc2C(=N)N(C)C)n1	1.65 µM
Cc1cc(C(=O)Nc2ccc(-c3ccccc3S(N)(=O)=O)cc2)n(-c2cc3ccccc3cc2F)n1	0.009 µM
Cc1cc(C(=O)Nc2ccc(-c3ccccc3S(N)(=O)=O)cc2)n(-c2ccc3ccccc3c2)n1	0.104 µM

target: T1, Coagulation factor X; assay: Tested for inhibitory activity against Coagulation factor Xa (trypsin-like serine protease) of the compound; details: not given

Structure (SMILES)	Ki
Cc1cc(C(=O)Nc2ccc(-c3ccccc3S(N)(=O)=O)cc2)n(-c2cc3ccccc3cc2F)n1	0.0057 µM

target: Kallikrein-1 (Homo sapiens, UniProt P06870); assay: Inhibitory activity against kallikrein; details: not given
Sequence (P06870 whole entry): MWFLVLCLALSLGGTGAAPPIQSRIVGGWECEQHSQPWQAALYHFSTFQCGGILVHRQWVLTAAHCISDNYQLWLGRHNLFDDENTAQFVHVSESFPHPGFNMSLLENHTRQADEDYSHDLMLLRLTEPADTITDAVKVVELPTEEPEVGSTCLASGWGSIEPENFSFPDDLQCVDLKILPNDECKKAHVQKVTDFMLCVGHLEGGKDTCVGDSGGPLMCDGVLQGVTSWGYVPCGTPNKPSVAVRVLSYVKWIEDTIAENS

Structure (SMILES)	IC50
Cc1cc(C(=O)Nc2ccc(-c3ccccc3S(N)(=O)=O)cc2)n(-c2ccc3cc(Cl)ccc3c2)n1	> 11 µM
Cc1cc(C(=O)Nc2ccc(-c3ccccc3S(N)(=O)=O)cc2)n(-c2cc3ccccc3cc2S(N)(=O)=O)n1	> 11 µM
Cc1cc(C(=O)Nc2ccc(-c3ccccc3S(N)(=O)=O)cc2)n(-c2cc3ccccc3cc2C2=NCCN2)n1	> 11 µM
Cc1cc(C(=O)Nc2ccc(-c3ccccc3S(N)(=O)=O)cc2)n(-c2cc3ccccc3cc2C#N)n1	> 11 µM
Cc1cc(C(=O)Nc2ccc(-c3ccccc3S(N)(=O)=O)cc2)n(-c2cc3ccccc3cc2CN)n1	> 11 µM
Cc1cc(C(=O)Nc2ccc(-c3ccccc3S(N)(=O)=O)cc2)n(-c2ccc3cc(Br)ccc3c2)n1	> 11 µM
COC(=O)c1cc2ccccc2cc1-n1nc(C)cc1C(=O)Nc1ccc(-c2ccccc2S(N)(=O)=O)cc1	> 11 µM
Cc1cc(C(=O)Nc2ccc(-c3ccccc3S(N)(=O)=O)cc2)n(-c2cc3ccccc3cc2CO)n1	> 11 µM
Cc1cc(C(=O)Nc2ccc(-c3ccccc3S(N)(=O)=O)cc2)n(-c2cc3ccccc3cc2C(=N)N(C)C)n1	> 11 µM
Cc1cc(C(=O)Nc2ccc(-c3ccccc3S(N)(=O)=O)cc2)n(-c2cc3ccccc3cc2F)n1	> 11 µM
Cc1cc(C(=O)Nc2ccc(-c3ccccc3S(N)(=O)=O)cc2)n(-c2ccc3ccccc3c2)n1	> 11 µM

target: Plasminogen (Homo sapiens, UniProt P00747); assay: Inhibitory activity against plasmin; details: not given
Sequence (P00747 97-580 limits assumed): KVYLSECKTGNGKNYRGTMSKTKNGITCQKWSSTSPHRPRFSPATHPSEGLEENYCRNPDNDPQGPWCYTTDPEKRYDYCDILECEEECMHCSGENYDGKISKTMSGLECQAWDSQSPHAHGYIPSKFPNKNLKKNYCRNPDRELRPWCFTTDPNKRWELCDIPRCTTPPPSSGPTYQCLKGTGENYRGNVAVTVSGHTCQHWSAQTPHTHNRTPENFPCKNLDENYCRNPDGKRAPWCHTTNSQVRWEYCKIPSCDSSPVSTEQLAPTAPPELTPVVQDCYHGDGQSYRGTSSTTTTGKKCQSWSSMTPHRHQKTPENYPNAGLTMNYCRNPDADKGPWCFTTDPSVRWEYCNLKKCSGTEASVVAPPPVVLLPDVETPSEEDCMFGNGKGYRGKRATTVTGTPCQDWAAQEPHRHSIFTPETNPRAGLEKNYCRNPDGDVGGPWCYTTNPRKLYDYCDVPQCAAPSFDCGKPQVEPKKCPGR
Sequence (P00747 581-810 limits assumed): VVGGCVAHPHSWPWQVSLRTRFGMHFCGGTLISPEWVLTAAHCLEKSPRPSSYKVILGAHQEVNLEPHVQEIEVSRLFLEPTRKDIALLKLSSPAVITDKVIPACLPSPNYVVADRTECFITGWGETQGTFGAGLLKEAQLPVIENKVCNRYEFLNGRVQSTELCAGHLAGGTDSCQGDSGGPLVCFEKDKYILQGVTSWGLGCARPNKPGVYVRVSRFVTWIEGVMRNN

Structure (SMILES)	IC50
Cc1cc(C(=O)Nc2ccc(-c3ccccc3S(N)(=O)=O)cc2)n(-c2ccc3cc(Cl)ccc3c2)n1	> 11 µM
Cc1cc(C(=O)Nc2ccc(-c3ccccc3S(N)(=O)=O)cc2)n(-c2cc3ccccc3cc2S(N)(=O)=O)n1	> 11 µM
Cc1cc(C(=O)Nc2ccc(-c3ccccc3S(N)(=O)=O)cc2)n(-c2cc3ccccc3cc2C2=NCCN2)n1	> 11 µM
Cc1cc(C(=O)Nc2ccc(-c3ccccc3S(N)(=O)=O)cc2)n(-c2cc3ccccc3cc2C#N)n1	> 11 µM
Cc1cc(C(=O)Nc2ccc(-c3ccccc3S(N)(=O)=O)cc2)n(-c2cc3ccccc3cc2CN)n1	> 11 µM
Cc1cc(C(=O)Nc2ccc(-c3ccccc3S(N)(=O)=O)cc2)n(-c2ccc3cc(Br)ccc3c2)n1	> 11 µM
COC(=O)c1cc2ccccc2cc1-n1nc(C)cc1C(=O)Nc1ccc(-c2ccccc2S(N)(=O)=O)cc1	> 11 µM
Cc1cc(C(=O)Nc2ccc(-c3ccccc3S(N)(=O)=O)cc2)n(-c2cc3ccccc3cc2CO)n1	> 11 µM
Cc1cc(C(=O)Nc2ccc(-c3ccccc3S(N)(=O)=O)cc2)n(-c2cc3ccccc3cc2C(=N)N(C)C)n1	> 11 µM
Cc1cc(C(=O)Nc2ccc(-c3ccccc3S(N)(=O)=O)cc2)n(-c2cc3ccccc3cc2F)n1	> 11 µM
Cc1cc(C(=O)Nc2ccc(-c3ccccc3S(N)(=O)=O)cc2)n(-c2ccc3ccccc3c2)n1	> 11 µM

target: Prothrombin (Homo sapiens, UniProt P00734); assay: Inhibitory activity against thrombin; details: not given

Structure (SMILES)	IC50
Cc1cc(C(=O)Nc2ccc(-c3ccccc3S(N)(=O)=O)cc2)n(-c2ccc3cc(Cl)ccc3c2)n1	> 11 µM
Cc1cc(C(=O)Nc2ccc(-c3ccccc3S(N)(=O)=O)cc2)n(-c2cc3ccccc3cc2S(N)(=O)=O)n1	> 11 µM
Cc1cc(C(=O)Nc2ccc(-c3ccccc3S(N)(=O)=O)cc2)n(-c2cc3ccccc3cc2C2=NCCN2)n1	> 11 µM
Cc1cc(C(=O)Nc2ccc(-c3ccccc3S(N)(=O)=O)cc2)n(-c2cc3ccccc3cc2C#N)n1	> 11 µM
Cc1cc(C(=O)Nc2ccc(-c3ccccc3S(N)(=O)=O)cc2)n(-c2cc3ccccc3cc2CN)n1	> 11 µM
Cc1cc(C(=O)Nc2ccc(-c3ccccc3S(N)(=O)=O)cc2)n(-c2ccc3cc(Br)ccc3c2)n1	> 11 µM
COC(=O)c1cc2ccccc2cc1-n1nc(C)cc1C(=O)Nc1ccc(-c2ccccc2S(N)(=O)=O)cc1	> 11 µM
Cc1cc(C(=O)Nc2ccc(-c3ccccc3S(N)(=O)=O)cc2)n(-c2cc3ccccc3cc2CO)n1	> 11 µM
Cc1cc(C(=O)Nc2ccc(-c3ccccc3S(N)(=O)=O)cc2)n(-c2cc3ccccc3cc2C(=N)N(C)C)n1	> 11 µM
Cc1cc(C(=O)Nc2ccc(-c3ccccc3S(N)(=O)=O)cc2)n(-c2cc3ccccc3cc2F)n1	> 11 µM
Cc1cc(C(=O)Nc2ccc(-c3ccccc3S(N)(=O)=O)cc2)n(-c2ccc3ccccc3c2)n1	> 11 µM

target: Serine protease 1 (Homo sapiens, UniProt P07477); assay: Inhibitory activity against trypsin; details: not given
Sequence (P07477 whole entry): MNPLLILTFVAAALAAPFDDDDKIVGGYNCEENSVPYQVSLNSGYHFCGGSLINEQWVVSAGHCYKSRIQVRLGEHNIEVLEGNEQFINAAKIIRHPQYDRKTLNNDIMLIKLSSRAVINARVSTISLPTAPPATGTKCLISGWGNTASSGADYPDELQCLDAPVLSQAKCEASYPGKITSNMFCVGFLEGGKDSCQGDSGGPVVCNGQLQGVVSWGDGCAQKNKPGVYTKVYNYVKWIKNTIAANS

Structure (SMILES)	IC50
Cc1cc(C(=O)Nc2ccc(-c3ccccc3S(N)(=O)=O)cc2)n(-c2ccc3cc(Cl)ccc3c2)n1	> 11 µM
Cc1cc(C(=O)Nc2ccc(-c3ccccc3S(N)(=O)=O)cc2)n(-c2cc3ccccc3cc2S(N)(=O)=O)n1	> 11 µM
Cc1cc(C(=O)Nc2ccc(-c3ccccc3S(N)(=O)=O)cc2)n(-c2cc3ccccc3cc2C2=NCCN2)n1	> 11 µM
Cc1cc(C(=O)Nc2ccc(-c3ccccc3S(N)(=O)=O)cc2)n(-c2cc3ccccc3cc2C#N)n1	> 11 µM
Cc1cc(C(=O)Nc2ccc(-c3ccccc3S(N)(=O)=O)cc2)n(-c2cc3ccccc3cc2CN)n1	> 11 µM
Cc1cc(C(=O)Nc2ccc(-c3ccccc3S(N)(=O)=O)cc2)n(-c2ccc3cc(Br)ccc3c2)n1	> 11 µM
COC(=O)c1cc2ccccc2cc1-n1nc(C)cc1C(=O)Nc1ccc(-c2ccccc2S(N)(=O)=O)cc1	> 11 µM
Cc1cc(C(=O)Nc2ccc(-c3ccccc3S(N)(=O)=O)cc2)n(-c2cc3ccccc3cc2CO)n1	> 11 µM
Cc1cc(C(=O)Nc2ccc(-c3ccccc3S(N)(=O)=O)cc2)n(-c2cc3ccccc3cc2C(=N)N(C)C)n1	> 11 µM
Cc1cc(C(=O)Nc2ccc(-c3ccccc3S(N)(=O)=O)cc2)n(-c2cc3ccccc3cc2F)n1	> 11 µM
Cc1cc(C(=O)Nc2ccc(-c3ccccc3S(N)(=O)=O)cc2)n(-c2ccc3ccccc3c2)n1	> 11 µM

test system: not listed separately; assay: Tested for half life value after intravenous administration at dose of 0.2 mg/kg in rat; assay type: ADME, organism-based; set-up: dose 0.2 mg/kg, route intravenous; details: in vivo

Structure (SMILES)	half-life
Cc1cc(C(=O)Nc2ccc(-c3ccccc3S(N)(=O)=O)cc2)n(-c2cc3ccccc3cc2F)n1	1.7 h

test system: not listed separately; assay: Tested for percent bioavailability after oral administration to Sprague-Dawley rat at dosage of 4 mg/kg; details: in vivo, read-out: Bioavailabiility

Structure (SMILES)	bioavailability
Cc1cc(C(=O)Nc2ccc(-c3ccccc3S(N)(=O)=O)cc2)n(-c2cc3ccccc3cc2F)n1	22%

From ChEMBL document CHEMBL1135946, “Design, synthesis and biological activity of novel non-amidine factor Xa inhibitors. Part 1: P(1) structure-activity relationships of the substituted 1-(2-Naphthyl)-1H-pyrazole-5-carboxylamides” (Bioorg Med Chem Lett, 2002)
